Entries after “also recorded” stand apart in the source; their conditions may differ. Structures can show the parent of a compound that is named as a salt.
Assays:
[1] = Stability in high-temperature experiment (60±2° C.); format: physicochemical
Procedure: Demethyleneberberine hydrochloride crystals A, B, C and D are taken in an appropriate amount and placed in plates numbered as A1, B1, C1 and D1 respectively, and then the plates are placed in a high-temperature environment at 60±2° C. respectively for stability test.

[2] = Determination of blood concentration in rats after ig administration; format: in vivo; conditions: male SD rats, ig 200 mg/kg, plasma, hydrochloride
Procedure: Male SD rats are adaptively bred for 3 days, and rats having (220±20) g body weight are selected and divided into 5 groups, namely, blank group, demethyleneberberine hydrochloride crystal form A group, demethyleneberberine hydrochloride crystal form B group, demethyleneberberine hydrochloride crystal form C group and demethyleneberberine hydrochloride crystal form D group. Food supply is stopped for 12 h for gastric emptying before the experiment. For the rats in the experimental groups, ig (intragastric) administration dosage is 200 mg/kg. 0.2 ml of blood is taken from the orbits of the rats at 5 min., 15 min., 30 min., 1 h, 2 h, 6 h and 12 h respectively after ig administration, the whole blood is centrifuged, and 100 μl of plasma is taken and frozen at −20° C. for use later. 100 μl of plasma sample is taken, 200 μl of methanol is added into the plasma sample, the mixture is vortexed for 5 min., and then centrifuged at 10,000 r/min. for 15 min. in a centrifuge; the supernatant is taken and tested by HPLC. […] Through calculation on the basis of the experimental results, it is determined: DAUC=3.675 μg×ml^−1×h>AAUC=1.247 μg×ml^−1×h>BAUC=1.150 μg×ml^−1×h>CAUC=1.077 μg×ml^−1×h.

[3] = Stability in strong light irradiation experiment (4,500 lx±500 lx); format: physicochemical
Description: Demethyleneberberine hydrochloride crystals A, B, C and D are taken in an appropriate amount and placed in plates numbered as A3, B3, C3 and D3 respectively, and then the plates are placed in a strong light irradiation environment at 4,500 lx±500 lx respectively for stability test.

[4] = Stability in high-humidity experiment (RH90±5%); format: physicochemical
Description: Demethyleneberberine hydrochloride crystals A, B, C and D are taken in an appropriate amount and placed in plates numbered as A2, B2, C2 and D2 respectively, and then the plates are placed in a high-humidity environment at RH90±5% respectively for stability test.

[5] = Solubility in water system at different temperatures, HPLC; format: physicochemical; conditions: hydrochloride
Procedure: Demethyleneberberine hydrochloride crystals A, B, C and D are taken in an appropriate amount and the solubility of demethyleneberberine hydrochloride crystals A, B, C and D at different temperatures in a water system is studied respectively. 20 μl of sample is taken at each temperature node and detected by HPLC.

[6] = Solubility in ethanol system at different temperatures, HPLC; format: physicochemical; conditions: FIG. 15, hydrochloride
Procedure: Demethyleneberberine hydrochloride crystals A, B, C and D are taken in an appropriate amount and the solubility of demethyleneberberine hydrochloride crystals A, B, C and D at different temperatures in an ethanol system is studied respectively. 20 μl of sample is taken at each temperature node and detected by HPLC.

[7] = Solubility in methanol system at different temperatures, HPLC; format: physicochemical; conditions: FIG. 14, hydrochloride
Procedure: Demethyleneberberine hydrochloride crystals A, B, C and D are taken in an appropriate amount and the solubility of demethyleneberberine hydrochloride crystals A, B, C and D at different temperatures in a methanol system is studied respectively. 20 μl of sample is taken at each temperature node and detected by HPLC.

[8] = 60±2° C., day 0, listed as D1, hydrochloride
[9] = 60±2° C., day 5, listed as D1, hydrochloride
[10] = 60±2° C., day 10, listed as D1, hydrochloride
[11] = day 0, listed as D3, hydrochloride
[12] = day 5, listed as D3, hydrochloride
[13] = day 10, listed as D3, hydrochloride
[14] = day 0, listed as D2, hydrochloride
[15] = day 5, listed as D2, hydrochloride
[16] = day 10, listed as D2, hydrochloride

In the case of `COc1ccc2cc3[n+](cc2c1OC)CCc1cc(O)c(O)cc1-3` [crystal form D, demethyleneberberine hydrochloride], the “X-Ray Powder Diffraction” value ([1]; 60±2° C., day 0) is reported as “Unchanged”, the “Content (%)” value [1, 8] is reported as 99.78% and the “Content of Relevant Substance (%)” value [1, 8] is reported as 0.22%. For the same compound, the “X-Ray Powder Diffraction” value ([1]; 60±2° C., day 5) was “Unchanged”, the “Content (%)” value [1, 9] was 99.83% and the “Content of Relevant Substance (%)” value [1, 9] was 0.17%. For the same compound, the “Content (%)” value [1, 10] was 99.71%, the “Content of Relevant Substance (%)” value [1, 10] was 0.29% and the “X-Ray Powder Diffraction” value [1, 10] was “Changed”. The “Stability in the high-temperature environment” value ([1]; 60±2° C., hydrochloride) was “unstable in the long-term high-temperature environment, and undergoes crystal transformation”, the “Stability under stability test conditions (summary)” value ([1]; summary over high temperature, high humidity and strong light irradiation, hydrochloride) was “tends to have crystal transformation under conditions such as high temperature and strong light irradiation” and the AUC ([2]; calculated from the experimental results) was 3675 ng·h/mL. The Cmax [2] was 1234 ng/mL, the tmax [2] was 2 h and the “X-Ray Powder Diffraction” value ([3]; day 0) was “Unchanged”. For the same compound, the “Content (%)” value [3, 11] was 99.78%, the “Content of Relevant Substance (%)” value [3, 11] was 0.22% and the “X-Ray Powder Diffraction” value ([3]; day 5) was “Unchanged”. For the same compound, the “Content (%)” value [3, 12] was 99.58%, the “Content of Relevant Substance (%)” value [3, 12] was 0.42% and the “Content (%)” value [3, 13] was 99.64%. The “Content of Relevant Substance (%)” value [3, 13] was 0.36%, the “X-Ray Powder Diffraction” value [3, 13] was “Changed” and the “Stability in the strong light irradiation environment” value ([3]; hydrochloride) was “unstable in the long-term strong light irradiation environment, and undergoes crystal transformation”. The “Stability in the high-humidity environment” value [4] was “relatively stable”, the “X-Ray Powder Diffraction” value ([4]; day 0) was “Unchanged” and the “Content (%)” value [4, 14] was 99.48%. For the same compound, the “Content of Relevant Substance (%)” value [4, 14] was 0.52%, the “X-Ray Powder Diffraction” value ([4]; day 5) was “Unchanged” and the “Content (%)” value [4, 15] was 99.41%. For the same compound, the “Content of Relevant Substance (%)” value [4, 15] was 0.59%, the “X-Ray Powder Diffraction” value ([4]; day 10) was “Unchanged” and the “Content (%)” value [4, 16] was 99.32%. For the same compound, the “Content of Relevant Substance (%)” value [4, 16] was 0.68%, the “Solubility comparison of the four crystal forms (summary)” value ([5]; summary over water, methanol and ethanol systems) was “lowest; also recorded: solubility of crystal form A of demethyleneberberine hydrochloride>solubility of crystal form D” and the “Solubility ranking among the four crystal forms” value ([5]; water system, different temperatures, FIG. 13) was “solubility of crystal form A of demethyleneberberine hydrochloride>solubility of crystal form D”. The “Solubility ranking among the four crystal forms” value [6] was “solubility of crystal form A of demethyleneberberine hydrochloride>solubility of crystal form D” and the “Solubility ranking among the four crystal forms” value [7] was “solubility of crystal form A of demethyleneberberine hydrochloride>solubility of crystal form D”.

Source: patent publication US11242340B2, “Crystal forms of demethyleneberberine hydrochloride and preparation method therefor” (priority 2018, dated 2022)
